From the supplement of paper PMC10307832

Key:
Test in all cases: relative viability (nuclei count vs DMSO), 5 days (fraction); higher = more cells survive
SGI-1776 + Crizotinib = compound: CN1CCC(CNc2ccc3ncc(-c4cccc(OC(F)(F)F)c4)n3n2)CC1 [SGI-1776] + C[C@@H](Oc1cc(-c2cnn(C3CCNCC3)c2)cnc1N)c1c(Cl)ccc(F)c1Cl [Crizotinib] (partner 1 µM)
In short: (§1)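 Lung cancer cell lines were seeded in 1536-well plates and dosed by pin tool the next day, with either a single drug or a fixed anchor-drug dose combined with five library-drug doses (not always all listed) spaced in √10 steps. Five days later, one step fixed the cells and stained their nuclei (final 0.05% Triton X-100, 1% formaldehyde, 1 ug/ml Hoechst), and nuclei were counted on 4× images. Relative viability is the nuclei count in treated wells divided by the count in vehicle wells, and each value is the median of duplicate plates.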

Entinostat + Crizotinib = compound: Nc1ccccc1NC(=O)c1ccc(CNC(=O)OCc2cccnc2)cc1 [Entinostat] + C[C@@H](Oc1cc(-c2cnn(C3CCNCC3)c2)cnc1N)c1c(Cl)ccc(F)c1Cl [Crizotinib] (partner 1 µM)
In short: as §1

Entinostat + Pemetrexed = compound: Nc1ccccc1NC(=O)c1ccc(CNC(=O)OCc2cccnc2)cc1 [Entinostat] + Nc1nc2[nH]cc(CCc3ccc(C(=O)N[C@@H](CCC(=O)O)C(=O)O)cc3)c2c(=O)[nH]1 [Pemetrexed] (partner 0.2 µM)
In short: as §1

Entinostat + Luminespib = compound: Nc1ccccc1NC(=O)c1ccc(CNC(=O)OCc2cccnc2)cc1 [Entinostat] + CCNC(=O)c1noc(-c2cc(C(C)C)c(O)cc2O)c1-c1ccc(CN2CCOCC2)cc1 [Luminespib] (partner 0.01 µM)
In short: as §1

Row | Cell Line | relative viability (SGI-1776 + Crizotinib; first compound 0.08 µM) | relative viability (SGI-1776 + Crizotinib; first compound 0.8 µM) | relative viability (SGI-1776 + Crizotinib; first compound 2.53 µM) | relative viability (SGI-1776 + Crizotinib; first compound 8 µM) | relative viability (Entinostat + Crizotinib; first compound 0.02 µM) | relative viability (Entinostat + Crizotinib; first compound 0.06325 µM) | relative viability (Entinostat + Crizotinib; first compound 0.2 µM) | relative viability (Entinostat + Crizotinib; first compound 0.6325 µM) | relative viability (Entinostat + Crizotinib; first compound 2 µM) | relative viability (Entinostat + Pemetrexed; first compound 0.02 µM) | relative viability (Entinostat + Pemetrexed; first compound 0.06325 µM) | relative viability (Entinostat + Pemetrexed; first compound 0.2 µM) | relative viability (Entinostat + Pemetrexed; first compound 0.6325 µM) | relative viability (Entinostat + Pemetrexed; first compound 2 µM) | relative viability (Entinostat + Luminespib; first compound 0.02 µM) | relative viability (Entinostat + Luminespib; first compound 0.06325 µM) | relative viability (Entinostat + Luminespib; first compound 0.2 µM) | relative viability (Entinostat + Luminespib; first compound 0.6325 µM) | relative viability (Entinostat + Luminespib; first compound 2 µM)
1 | HCC-366 | 0.549 | 0.557 | 0.393 | 0.098 | 0.447 | 0.407 | 0.283 | 0.0613 | 0.0249 | 0.185 | 0.141 | 0.159 | 0.0978 | 0.0735 |  |  |  |  | 
2 | HCC-827 | 0.956 | 0.975 | 0.985 | 0.915 | 0.868 | 0.889 | 0.699 | 0.559 | 0.384 | 0.268 | 0.265 | 0.227 | 0.229 | 0.187 | 0.505 | 0.309 | 0.401 | 0.202 | 0.197
3 | HOP-62 | 0.998 | 0.854 | 0.839 | 0.969 | 0.951 | 1.03 | 0.812 | 0.618 | 0.288 | 0.23 | 0.301 | 0.286 | 0.229 | 0.188 | 0.944 | 0.818 | 0.824 | 0.71 | 0.431
4 | IA-LM | 0.514 | 0.989 |  | 0.69 | 0.731 | 0.855 | 0.928 | 0.728 | 0.651 |  |  |  |  |  |  |  |  |  | 
5 | LC-2-ad | 0.53 | 0.47 | 0.414 | 0.36 | 0.521 | 0.4 | 0.36 | 0.296 | 0.241 | 0.286 | 0.276 | 0.28 | 0.302 | 0.33 | 1.04 | 0.936 | 0.816 | 0.65 | 0.298
6 | LCLC-97TM1 | 0.383 | 0.384 | 0.342 | 0.198 | 0.285 | 0.435 | 0.303 | 0.273 | 0.151 | 0.149 | 0.169 | 0.148 | 0.196 | 0.168 | 0.939 | 0.798 | 0.695 | 0.808 | 0.491
7 | LCLC-103H | 1.03 | 1.04 | 1.03 | 0.958 | 0.968 | 1.03 | 0.992 | 0.801 | 0.631 | 0.472 | 0.463 | 0.443 | 0.454 | 0.426 | 0.979 | 0.967 | 0.909 | 0.715 | 0.288
8 | LK-2 | 0.228 | 0.228 | 0.258 | 0.25 | 0.252 | 0.234 | 0.227 | 0.255 | 0.248 | 0.365 | 0.278 | 0.282 | 0.276 | 0.132 | 0.18 | 0.192 | 0.178 | 0.188 | 0.178
9 | LOU-NH91 | 0.776 | 0.747 | 0.693 | 0.593 | 0.705 | 0.754 | 0.757 | 0.742 | 0.678 | 0.381 | 0.333 | 0.326 | 0.341 | 0.379 | 0.341 | 0.333 | 0.371 | 0.394 | 0.337
10 | LU99A | 0.621 | 0.529 | 0.549 | 0.288 | 0.537 | 0.592 | 0.565 | 0.38 | 0.267 | 0.188 | 0.181 | 0.184 | 0.175 | 0.179 | 0.286 | 0.255 | 0.322 | 0.211 | 0.281
11 | LXF-289 | 0.803 | 0.805 | 0.813 | 0.786 | 0.789 | 0.806 | 0.788 | 0.669 | 0.331 | 0.878 | 0.878 | 0.869 | 0.719 | 0.665 | 0.754 | 0.675 | 0.739 | 0.494 | 0.354
12 | NCI-H23 | 0.747 | 0.368 | 0.383 | 0.256 | 0.5 | 0.545 | 0.407 | 0.39 | 0.166 | 0.76 | 0.892 | 0.728 | 0.685 | 0.319 | 0.187 | 0.21 | 0.229 | 0.199 | 0.18
13 | NCI-H322M | 0.998 | 0.824 | 1.01 | 0.664 | 1.03 | 0.961 | 0.98 | 0.809 | 0.651 | 0.66 | 0.692 | 0.716 | 0.599 | 0.583 | 0.909 | 1.13 | 1.06 | 1.1 | 1.03
14 | NCI-H522 |  |  |  |  |  |  |  |  |  | 0.848 | 1.21 | 1.12 | 1.04 | 0.774 | 1.21 | 1.33 | 1.38 | 1.1 | 0.649
15 | NCI-H727 | 0.831 | 0.79 | 0.863 | 0.48 | 0.765 | 0.731 | 0.693 | 0.628 | 0.342 |  |  |  |  |  | 0.326 | 0.413 | 0.364 | 0.328 | 0.459
16 | NCI-H1299 | 0.969 | 0.969 | 0.917 | 0.807 | 0.904 | 0.925 | 0.91 | 0.767 | 0.561 |  |  |  |  |  |  |  |  |  | 
17 | NCI-H1395 |  |  |  |  |  |  |  |  |  | 0.884 | 1.05 | 0.911 | 0.76 | 0.719 | 0.711 | 0.663 | 0.634 | 0.659 | 0.6
18 | NCI-H1623 |  |  |  |  |  |  |  |  |  |  |  |  |  |  | 0.632 | 0.554 | 0.443 | 0.472 | 0.279
19 | NCI-H1648 |  |  |  |  |  |  |  |  |  | 0.736 | 0.685 | 0.772 | 0.38 | 0.407 |  |  |  |  | 
20 | NCI-H1703 | 1.17 | 0.521 | 0.272 | 0.124 | 0.674 | 0.786 | 0.884 | 0.415 | 0.358 |  |  |  |  |  |  |  |  |  | 
21 | NCI-H1793 |  |  |  |  |  |  |  |  |  | 0.984 | 1.08 | 1.08 | 0.572 | 0.316 | 0.224 | 0.157 | 0.177 | 0.171 | 0.161
22 | NCI-H2342 |  |  |  |  |  |  |  |  |  | 0.811 | 0.849 | 0.708 | 0.638 | 0.668 | 0.69 | 0.729 | 0.744 | 0.589 | 0.553
23 | SW 900 |  |  |  |  |  |  |  |  |  | 0.529 | 0.51 | 0.448 | 0.489 | 0.43 | 0.185 | 0.157 | 0.222 | 0.163 | 0.202
